The values below come from patent US20070142396A1, “Treatment of pain with 1-[3-[4-(3-chlorophenyl)-1-piperazinyl]propyl]-5-methoxy-3,4-dihydro-2(1H)-quinolone or salt thereof” (Vela Pharmaceuticals, Inc., priority 2005, published 2007).

For test [1], the system named is rats with spinal nerve ligature (Chung neuropathic pain model). The test can be described thus: Chung neuropathic pain model, cold allodynia on cold plate (Example 3). Type of test: in vivo, rat. Conditions: cold plate. The text has this: The rats used in this experiment were the same rats used in Example 2. The materials and methods for this experiment were identical to those for Example 2 with the following exceptions: there was a 1-week washout between the two experiments, and the rats weighed 290-403 g at the start of this experiment. Prior to receiving drug treatment, all animals were submitted to tactile stimulation and assigned to treatment groups matched on the basis of their pain response. No account was taken of the treatment administered during the first experiment in assigning animals to treatment groups for this experiment.
All of the substances were administered orally. Morphine, dissolved in distilled water, was administered at 128 mg/kg dose p.o. Rats were tested 30 minutes, 1 hour, 2 hours, and 4 hours after administration of the substances.
Behavioral testing was carried out by measuring cold allodynia using an apparatus consisting of a cold plate maintained at 4±1° C. Rats were individually placed on the cold plate for a period of 5 minutes. The latency to the first paw withdrawal response and the number and total duration of withdrawal responses in 5 minutes were recorded for both the lesioned and the non-lesioned hindpaws.

For test [2], the system named is rats with L5 spinal nerve ligation (SNL model). The test can be described thus: Spinal nerve ligation (L5) neuropathic pain model, von Frey filaments, dose range (Example 5). Type of test: in vivo, rat. From the text:
The spinal nerve ligation (SNL) model of neuropathic pain was produced in all rats as described by Kim and Chung (Pain, 50, 355-363, 1992). Briefly, under gaseous anesthesia using halothane (3% for induction and 1.5% for maintenance) in oxygen, the left L5 spinal nerve was exposed by removing the paraspinal muscles and the transverse process of the L6 vertebra. The very proximal portion of the L5 spinal nerve was tightly ligated with 6-0 silk suture. The wounds were closed and anesthesia was discontinued. Rats were kept on a heated blanket until they had completely recovered from anesthesia.
Behavioral tests were conducted in a non-blind fashion. The foot withdrawal threshold to mechanical stimuli applied to the paw (mechanical threshold) was measured, as an indicator of mechanical sensitivity of the affected paw. The foot withdrawal threshold was measured using von Frey filaments. It is generally thought that von Frey filaments are more sensitive than electronic von Frey probes for measuring tactile stimulation. The mechanical thresholds were measured by using the “up-and-down” method (Chaplan et al., J. Neurosci. Methods 53(1):55-63, 1994), following the procedures described in previous studies (Park et al., Pain 87(2):171-179, 2000; Xie et al., J. Pain 2(5):270-278, 2001; Baik et al., J. Pain 4:212-221, 2003). In brief, rats were placed in a transparent plastic box on a metal wire mesh floor. To determine the threshold stiffness required for 50% paw withdrawal, a series of eight von Frey filaments with approximately equal logarithmic incremental (0.22) von Frey values (3.65, 3.87, 4.10, 4.31, 4.52, 4.74, 4.92, and 5.16) were used. Von Frey (VF) values are logarithmically related to gram (g) values (VF=log (10,000×g)). The chosen von Frey values are therefore equivalent to 0.45, 0.74, 1.26, 2.04, 3.31, 5.50, 8.32, and 14.45 in gram value, respectively. Starting with filament 4.31, von Frey filaments were applied perpendicularly to the ventral surface of the proximal part of the third or fourth toe for 2-3 seconds. Whenever a positive response to a stimulus occurred (paw withdrawal), the next smaller von Frey hair was applied. Whenever a negative response occurred, the next larger one was applied. The test was continued until the response of six stimuli after the first change in response had been obtained or the test had reached either end of the spectrum of the von Frey set.
The 50% threshold value was then calculated using Dixon's formula (Dixon, Ann. Rev. Phar. Tox. 20:441-462, 1980): 50% threshold=X+kd, where X is the value of the final von Frey hair used (in log units), k is the tabular value for the pattern of positive/negative responses, and d is the mean difference between stimuli in log units (0.22). In the cases where continuous positive or negative responses were observed all the way out to the end of the stimulus spectrum, values of 3.54 or 5.27 were assigned, respectively, by assuming a value of (−/+) 0.5 for k in these cases (Dixon, supra, 1980). Outcome of behavioral data were expressed as von Frey values (maximum range from 3.54 to 5.27) and plotted in a linear scale.
Data were expressed as the mean±standard errors of mean (SEM). Differences in mechanical thresholds at various times after injections were tested using two-way (time and group factors) analysis of variance (ANOVA), followed by the Duncan's post-hoc test for multiple comparisons. Statistical analyses were done using the SAS® software program (SAS Institute Inc, Cary, N.C.). Two-tailed p-values<0.05 were considered to be significant.
This experiment was conducted on 8 rats in a Latin-square design examining a dose response of OPC-14523. Gabapentin was prepared at 10 mg/ml in 0.5% tragacanth and administered at 100 mg/kg p.o. Behavioral tests were conducted in a blind fashion twice (1 day and 1 hour) before as well as 1 and 4 days after the neuropathic surgery. […] These 8 rats were randomly divided into 6 groups of 1-2 rats. […]

In the case of `COc1cccc2c1CCC(=O)N2CCCN1CCN(c2cccc(Cl)c2)CC1` [OPC-14523, 1-[3-[4-(3-chlorophenyl)-1-piperazinyl]propyl]-5-methoxy-3,4-dihydro-2(1H)-quinolone], the “decrease of number of withdrawal responses” value in test [1] (30 mg/kg p.o., lesioned paw, 30 minutes, p<0.01) turned out to be 50%; in test [1] (100 mg/kg p.o., lesioned paw, 30 minutes, p<0.05), 64%. Also, in test [1] (30 mg/kg p.o., lesioned paw, 4 hours, p<0.05), the “change of number of withdrawal responses” value was −48%. Besides, in test [1] (100 mg/kg p.o., 2 hours, p<0.05), the “change of total duration of withdrawal responses” value is listed as −95%. The “change of latency to paw withdrawal” value in test [1] (100 mg/kg p.o., lesioned paw, 30 minutes, p<0.01) is on record as “+140%”; in test [1] (100 mg/kg p.o., lesioned paw, 1 hour, p=0.24), “+183%”. Besides, the “effect on mechanical threshold” value was “neither vehicle nor OPC-14523 at 10 mg/kg produced significant changes” in test [2] (10 mg/kg oral), “statistically significant increase” in test [2] (30 mg/kg oral), “statistically significant increase” in test [2] (60 mg/kg oral) and “statistically significant increase” in test [2] (100 mg/kg oral). Further, the “level of response compared with gabapentin 100 mg/kg p.o.” value in test [2] (30 mg/kg oral) and in test [2] (60 mg/kg oral) was “comparable to that of gabapentin” in each case. Moreover, in test [2] (100 mg/kg oral, exceeding the response induced by gabapentin), the “level of mechanical threshold reached” value is reported as “about the level observed prior to the ligature surgery”.
